Results on 2 compounds are retold here after paper PMC6044897 (ACS Omega, 2017).

For one assay, the target named is T1, M2R (Homo sapiens, UniProt P08172).
T1 sequence (P08172 1-466): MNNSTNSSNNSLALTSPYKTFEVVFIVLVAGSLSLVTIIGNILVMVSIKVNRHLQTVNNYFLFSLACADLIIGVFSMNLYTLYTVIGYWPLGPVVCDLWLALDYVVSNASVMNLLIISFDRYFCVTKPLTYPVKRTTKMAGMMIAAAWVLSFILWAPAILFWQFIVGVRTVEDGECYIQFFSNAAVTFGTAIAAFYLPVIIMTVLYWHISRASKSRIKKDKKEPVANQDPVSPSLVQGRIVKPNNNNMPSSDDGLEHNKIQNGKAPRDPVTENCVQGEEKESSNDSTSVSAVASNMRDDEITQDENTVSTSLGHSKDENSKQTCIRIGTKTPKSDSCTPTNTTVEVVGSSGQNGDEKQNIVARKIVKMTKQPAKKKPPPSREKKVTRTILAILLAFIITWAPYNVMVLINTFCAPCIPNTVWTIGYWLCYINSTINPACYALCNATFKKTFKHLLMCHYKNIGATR
The experiment in a line: Equilibrium competition binding with [^3H]64 at CHO-hM2R cell homogenates.

Another assay has as its target M1R–M5R. The conditions noted are these: read-out: Ki (M1R–M4R); range over M1R–M4R; cited from earlier work.

For the compound `CCCCCCOc1nsnc1C1=CCCN(C)C1` [Compound 1, xanomeline], at M2R, the “displacement of [^3H]64 from the M2R-specific binding sites” value is “completely displaced”.

`CC(C)[N+](C)(CCOC(=O)C1c2ccccc2Oc2ccccc21)C(C)C` [Compound 4, propantheline]: the Ki (as a rule, the equilibrium dissociation constant of an inhibitor or competing ligand from its target) at M1R–M5R was 0.057 to 0.33 nM.
